# Test results from US6858638B2, “Substituted indazoles, compositions containing them, method of production and use” (Aventis Pharma S.A., priority 2002, dated 2005).
# Key:
# Assay type in all cases: biochemical
# [1] = target: T1, Aurora2 kinase (Homo sapiens, UniProt O14965); experiment: Aurora2 kinase radioactivity scintillation assay using nickel chelate (NuMA substrate); details: 10 μM; read-out: Aurora2 % inhib at 10 μM
# T1 construct: A complete recombinant Aurora2 enzyme; His tag (N); made in house; host or cells: E. coli
# T1 sequence (O14965 1-403): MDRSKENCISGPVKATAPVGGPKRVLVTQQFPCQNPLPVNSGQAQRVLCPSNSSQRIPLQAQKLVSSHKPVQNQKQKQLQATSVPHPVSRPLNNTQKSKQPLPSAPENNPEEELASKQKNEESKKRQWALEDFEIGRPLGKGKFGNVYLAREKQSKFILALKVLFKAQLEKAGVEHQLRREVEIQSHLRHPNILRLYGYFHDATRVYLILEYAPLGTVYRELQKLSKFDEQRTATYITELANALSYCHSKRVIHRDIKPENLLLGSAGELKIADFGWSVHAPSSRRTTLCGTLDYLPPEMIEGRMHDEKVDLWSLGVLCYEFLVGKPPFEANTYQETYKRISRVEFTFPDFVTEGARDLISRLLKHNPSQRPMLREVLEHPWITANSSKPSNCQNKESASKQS
# Outline: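 Read-out is 33P incorporation into His-NuMA (Q1687-H2101, 0.5 μM) captured on nickel chelate, after 30 min at 37 °C with 0.02 μM His-Aurora2 and 1 μM ATP. Expressed as percentage inhibition of uncompounded control activity, background subtracted.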
# [2] = target: T2, human FAK (Homo sapiens, UniProt Q05397); experiment: FAK autophosphorylation inhibition, time resolved fluorescence (HTRF) assay; details: for inhibition at 30 µM: 30 μM (values marked *), read-out: FAK % inhib at 30* μM; for inhibition at 10 µM: 10 μM (values without asterisk), read-out: FAK % inhib at 10 μM
# T2 construct: The complete cDNA of human FAK; made in house; host or cells: baculovirus expression system (vector pFastBac HTc)
# Outline: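 Autophosphorylation was detected by europium-cryptate anti-pTyr and XL665 anti-His energy transfer, percent inhibition from the 665/620 ratio relative to no-compound wells. Enzyme: His-FAK full length, 6.6 µg/ml, incubated 1 h at 37 °C, pH 7.2, 15 µM ATP.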
# [3] = target: T3, human IGF1R cytoplasmic domain (Homo sapiens, UniProt P08069); experiment: IGF1R autophosphorylation inhibition, time resolved fluorescence (HTRF) assay; details: 10 μM; read-out: IGF1R % inhib at 10 μM
# T3 construct: The human IGF1R cytoplasmic domain was cloned; made in house; host or cells: SF21 insect cells (baculovirus)
# Outline: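 GST-tagged human IGF1R cytoplasmic domain from SF21 cells incubated with compound in 50 mM Hepes pH 7.5, 5 mM MnCl2, 50 mM NaCl, […] ATP. Autophosphorylation detected by HTRF (Eu-K anti-phosphotyrosine, XL665 anti-GST) after EDTA/KF stop; percentage inhibition versus no-compound control.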
# T2 sequence (Q05397 whole entry): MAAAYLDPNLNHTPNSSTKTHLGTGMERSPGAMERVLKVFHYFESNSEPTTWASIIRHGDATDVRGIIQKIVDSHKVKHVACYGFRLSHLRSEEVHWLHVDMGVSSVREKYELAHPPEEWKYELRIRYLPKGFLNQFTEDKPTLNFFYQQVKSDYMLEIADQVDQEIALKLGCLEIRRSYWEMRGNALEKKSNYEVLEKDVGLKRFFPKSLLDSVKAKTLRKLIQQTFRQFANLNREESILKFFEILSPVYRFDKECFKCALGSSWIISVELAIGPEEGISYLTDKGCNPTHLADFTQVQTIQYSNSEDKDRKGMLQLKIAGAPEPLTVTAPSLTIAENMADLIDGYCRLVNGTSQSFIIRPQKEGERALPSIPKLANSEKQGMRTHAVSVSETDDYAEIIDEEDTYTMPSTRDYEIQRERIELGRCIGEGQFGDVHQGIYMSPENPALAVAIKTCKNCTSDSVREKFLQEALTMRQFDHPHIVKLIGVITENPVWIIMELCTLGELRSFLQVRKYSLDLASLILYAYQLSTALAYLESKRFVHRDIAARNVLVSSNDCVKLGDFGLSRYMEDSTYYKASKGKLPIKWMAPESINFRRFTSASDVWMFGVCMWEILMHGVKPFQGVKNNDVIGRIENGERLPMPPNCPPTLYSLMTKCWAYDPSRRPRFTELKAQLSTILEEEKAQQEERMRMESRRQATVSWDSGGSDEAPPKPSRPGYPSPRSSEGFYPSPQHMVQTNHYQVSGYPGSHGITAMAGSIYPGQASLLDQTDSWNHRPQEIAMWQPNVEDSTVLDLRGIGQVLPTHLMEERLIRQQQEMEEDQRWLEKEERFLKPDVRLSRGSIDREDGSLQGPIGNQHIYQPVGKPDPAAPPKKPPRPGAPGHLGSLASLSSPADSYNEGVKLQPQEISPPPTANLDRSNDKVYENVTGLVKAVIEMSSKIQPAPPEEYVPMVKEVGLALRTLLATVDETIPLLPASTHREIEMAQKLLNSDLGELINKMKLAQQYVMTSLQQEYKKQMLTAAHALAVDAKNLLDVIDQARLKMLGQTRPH
# T3 sequence (P08069 960-1367 limits assumed): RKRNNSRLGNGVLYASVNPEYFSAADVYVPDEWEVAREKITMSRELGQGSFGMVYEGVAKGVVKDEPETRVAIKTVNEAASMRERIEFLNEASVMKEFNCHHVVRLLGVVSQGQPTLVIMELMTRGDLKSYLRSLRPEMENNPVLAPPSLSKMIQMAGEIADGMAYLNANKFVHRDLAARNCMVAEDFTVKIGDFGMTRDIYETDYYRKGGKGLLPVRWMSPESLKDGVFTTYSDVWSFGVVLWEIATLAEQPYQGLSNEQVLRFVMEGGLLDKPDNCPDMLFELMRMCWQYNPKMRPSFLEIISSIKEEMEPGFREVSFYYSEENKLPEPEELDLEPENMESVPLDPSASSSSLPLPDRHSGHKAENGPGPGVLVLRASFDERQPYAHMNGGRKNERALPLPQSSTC
SMILES,inhibition at 10 µM [1],inhibition at 30 µM [2],inhibition at 10 µM [2],inhibition at 10 µM [3]
"CS(=O)(=O)c1ccccc1S(=O)(=O)Nc1ccc2[nH]nc(Cl)c2c1 [Example 1, N-(3-Chloro-1H-indazol-5-yl)-2-methylsulfonylbenzenesulfonamide]",86%,70%,–,–
"O=S(=O)(Nc1ccc2[nH]nc(Cl)c2c1)c1cccc(F)c1 [Example 3, N-(3-Chloro-1H-indazol-5-yl)-3-fluorobenzenesulfonamide]",46%,71%,–,–
"O=S(=O)(Nc1ccc2[nH]nc(-c3ccccc3)c2c1)c1cccc(F)c1 [Example 6, 3-Fluoro-N-(3-phenyl-1H-indazol-5-yl)benzenesulfonamide]",95%,–,82%,–
"CS(=O)(=O)c1ccccc1S(=O)(=O)Nc1ccc2[nH]nc(-c3ccccc3)c2c1 [Example 7, 2-Methylsulfonyl-N-(3-phenyl-1H-indazol-5-yl)benzenesulfonamide]",97%,–,89%,–
"O=S(=O)(Nc1ccc2[nH]nc(-c3ccccc3)c2c1)c1ccc(Cl)c(Cl)c1 [Example 8, 3,4-Dichloro-N-(3-phenyl-1H-indazol-5-yl)benzenesulfonamide]",59%,76%,–,–
"Cc1n[nH]c2ccc(NS(=O)(=O)c3cccc(F)c3)cc12 [Example 9, 3-Fluoro-N-(3-methyl-1H-indazol-5-yl)benzenesulfonamide]",61%,68%,–,–
"Cc1n[nH]c2ccc(NS(=O)(=O)c3ccccc3S(C)(=O)=O)cc12 [Example 10, 2-Methylsulfonyl-N-(3-methyl-1H-indazol-5-yl)benzenesulfonamide]",90%,66%,–,–
"CS(=O)(=O)c1ccccc1S(=O)(=O)Nc1ccc2[nH]ncc2c1 [Example 13, 2-Methylsulfonyl-N-(1H-indazol-5-yl)benzenesulfonamide]",76%,83%,–,–
"Nc1n[nH]c2ccc(NS(=O)(=O)c3cccc(F)c3)cc12 [Example 26, N-(3-Amino-1H-indazol-5-yl)-3-fluorobenzenesulfonamide]",95%,–,96%,34%
"CS(=O)(=O)c1ccccc1S(=O)(=O)Nc1ccc2[nH]nc(-c3ccc(Cl)cc3)c2c1 [Example 30, N-[3-(4-Chlorophenyl)-1H-indazol-5-yl]-2-methylsulfonylbenzenesulfonamide]",100%,–,88%,96%
"COc1ccc(-c2n[nH]c3ccc(NS(=O)(=O)c4ccccc4S(C)(=O)=O)cc23)cc1 [Example 32, N-[3-(4-Methoxyphenyl)-1H-indazol-5-yl]-2-methylsulfonylbenzenesulfonamide]",92%,–,97%,93%
"CS(=O)(=O)c1ccccc1S(=O)(=O)Nc1ccc2[nH]nc(-c3ccc(F)cc3)c2c1 [Example 33, N-[3-(4-Fluorophenyl)-1H-indazol-5-yl]-2-methylsulfonylbenzenesulfonamide]",89%,–,94%,94%
"CS(=O)(=O)c1ccccc1S(=O)(=O)Nc1ccc2[nH]nc(NCc3ccccc3)c2c1 [Example 36, N-(3-Benzylamino-1H-indazol-5-yl)-2-methylsulfonylbenzenesulfonamide]",80%,–,92%,92%
"CNc1n[nH]c2ccc(NS(=O)(=O)c3ccccc3S(C)(=O)=O)cc12 [Example 37, N-(3-Methylamino-1H-indazol-5-yl)-2-methylsulfonylbenzenesulfonamide]",36%,–,67%,51%
"CS(=O)(=O)c1ccccc1S(=O)(=O)Nc1ccc2[nH]nc(N)c2c1 [Example 39, N-(3-Amino-1H-indazol-5-yl)-2-methylsulfonylbenzenesulfonamide]",81%,–,96%,72%
"Nc1n[nH]c2ccc(NS(=O)(=O)c3c(F)cccc3F)cc12 [Example 40, N-(3-Amino-1H-indazol-5-yl)-2,6-difluorobenzenesulfonamide]",70%,–,55%,12%
"Nc1n[nH]c2ccc(NS(=O)(=O)c3c(Cl)cccc3Cl)cc12 [Example 41, N-(3-Amino-1H-indazol-5-yl)-2,6-dichlorobenzenesulfonamide]",90%,–,71%,18%
"Nc1n[nH]c2ccc(NS(=O)(=O)c3cc(F)cc(F)c3)cc12 [Example 42, N-(3-Amino-1H-indazol-5-yl)-3,5-difluorobenzenesulfonamide]",50%,–,100%,0%
"CS(=O)(=O)c1ccccc1S(=O)(=O)Nc1ccc2[nH]nc(-c3ccoc3)c2c1 [Example 52, N-(3-Furan-3-yl-1H-indazol-5-yl)-2-methylsulfonylbenzenesulfonamide]",84%,–,93%,80%
"CS(=O)(=O)c1ccccc1S(=O)(=O)Nc1ccc2[nH]nc(-c3ccco3)c2c1 [Example 53, N-(3-Furan-2-yl-1H-indazol-5-yl)-2-methylsulfonylbenzenesulfonamide]",91%,–,96%,76%
"CS(=O)(=O)c1ccccc1S(=O)(=O)Nc1ccc2[nH]nc(-c3ccncc3)c2c1 [Example 54, 2-Methylsulfonyl-N-(3-pyridin-4-yl-1H-indazol-5-yl)benzenesulfonamide]",100%,–,96%,87%
"COC(=O)c1cccc(-c2n[nH]c3ccc(NS(=O)(=O)c4ccccc4S(C)(=O)=O)cc23)c1 [Example 55, Methyl 3-[5-(2-methylsulfonylbenzenesulfonamino)-1H-indazol-3-yl]benzoate]",94%,–,98%,64%
"CS(=O)(=O)c1ccccc1S(=O)(=O)Nc1ccc2[nH]nc(-c3ccc[nH]3)c2c1 [Example 60, 2-Methylsulfonyl-N-[3-(1H-pyrrol-2-yl)-1H-indazol-5-yl]benzenesulfonamide]",100%,–,99%,99%
"CS(=O)(=O)c1ccccc1S(=O)(=O)Nc1ccc2[nH]nc(-c3cc4ccccc4[nH]3)c2c1 [Example 61, N-[3-(1H-Indol-2-yl)-1H-indazol-5-yl]-2-methylsulfonylbenzenesulfonamide]",100%,–,99%,99%
"CS(=O)(=O)c1ccccc1S(=O)(=O)Nc1ccc2[nH]nc(-c3cccc(N)c3)c2c1 [Example 62, N-[3-(3-Aminophenyl)-1H-indazol-5-yl]-2-methylsulfonylbenzenesulfonamide]",100%,–,99%,88%
"CN(C)c1ccc(-c2n[nH]c3ccc(NS(=O)(=O)c4ccccc4S(C)(=O)=O)cc23)cc1 [Example 63, N-[3-(4-Dimethylaminophenyl)-1H-indazol-5-yl]-2-methylsulfonylbenzenesulfonamide]",100%,–,94%,81%
"CS(=O)(=O)c1ccccc1S(=O)(=O)Nc1ccc2[nH]nc(-c3cc4ccccc4s3)c2c1 [Example 65, N-(3-Benzo[b]thiophen-2-yl-1H-indazol-5-yl)-2-methylsulfonylbenzenesulfonamide]",100%,–,86%,63%
"CS(=O)(=O)c1ccccc1S(=O)(=O)Nc1ccc2[nH]nc(-c3ccc(N)cc3)c2c1 [Example 70, N-[3-(4-Aminophenyl)-1H-indazol-5-yl]-2-methylsulfonylbenzenesulfonamide]",98%,–,99%,85%
"CS(=O)(=O)c1ccccc1S(=O)(=O)Nc1ccc2[nH]nc(-c3cccc(C#N)c3)c2c1 [Example 71, N-[3-(3-Cyanophenyl)-1H-indazol-5-yl]-2-methylsulfonylbenzenesulfonamide]",93%,–,97%,90%
